# Test results published in patent publication US12180612B2, “Plant tissue-derived nanofibres” (priority 2018, dated 2024).
# Where “and” joins values, the source holds several entries; their conditions need not be identical. Equal values may be shown once. Entries after “also recorded” stand apart in the source; their conditions may differ. Read-outs that look alike come from different tables or passages of the source.
# Legend:
# [1] = tested on: normal human colonic epithelial cells (CRL 1790)
# Description: (§1) Cell culture: Three cell lines derived from colon, CRL 1790, a normal cell line, HT 29, a colorectal cancer cell line and CRL 2158 a multidrug resistant colorectal cancer cell line (ATCC) were used to evaluate the cytotoxicity of nanocomplexes. Cells were cultured in media specifically recommended for each cell line. For HT 29, the medium used was DMEM (Dulbecco's modified Eagle's medium, Sigma), for CRL 2158, the medium used was RPMI, and for CRL 1790, the medium used was EMEM (Eagle's minimum essential medium; Cedarlane Labs, Burlington, ON, Canada). All the media were supplemented with FBS, Penicillin/streptomycin, and L-glutamine. At confluency (˜80%), cells were washed with 1×PBS twice. Cells were incubated with trypsin-EDTA for 5 minutes and then diluted in respective media supplemented with 10% FBS before staining with trypan blue (50 μl of cells and 450 μl of trypan blue) and counting viable cells to evaluate cytotoxicity. The cytotoxicity was determined by trypan blue exclusion by living cells and blue staining of dead cells. The number of dead cells in a unit area was counted and expressed as a percentage of total cells in the area.
# (§2) Cytotoxicity of nanoparticles and nanofibres against cancer cells: These studies evaluate the cytotoxic effects of the purified nanoparticles and the nanofibres isolated from sour cherry using normal human colonic epithelial cells (CRL 1790), human colorectal cancer cells (HT 29) and multidrug resistant human colorectal cancer cells (CRL 2158) in the presence or absence of paclitaxel. Nanoparticles were added as polyphenol equivalent aliquots, while the nanofibres were added on a weight basis. […]
# [2] = tested on: multidrug resistant human colorectal cancer cells (CRL 2158)
# Description: as §1, §2
# [3] = tested on: human colorectal cancer cells (HT 29)
# Description: as §1, §2
# [4] = tested on: Normal Human Intestinal Cells (CRL 1790); details: B-Live/Dead cell analysis; paclitaxel 32 nM, 24 h, without or with nanofibre 4 μg/ml
# Description: (§3) Live-Dead cell analysis: Cells were grown as confluent and subconfluent monolayers for 24 h as described previously (Hakimuddin et al., 2004). Cells were treated with paclitaxel, or paclitaxel along with nanofibers for 12 h (Appropriate amounts of paclitaxel and nanofibers were mixed in 5% DMSO in water, and added to the cells). Cells were washed with phosphate buffer and cell viability tests performed on CRL 1790, CRL 2158 and HT 29 cells using a live/dead cell viability kit (Invitrogen, Mississauga, Ontario) as described by the manufacturer. Live dead cells were visualized under a confocal microscope. The assay kit contains two fluorescent dyes, calcein AM ester (Ex 494 nm, Em 517 nm) which specifically enters live cells, gets de-esterified and stains the live cells green. The dying cells as well as dead cells are membrane compromised (leaky plasma membrane) and allows the entry of ethidium homodimer Ex 517 nm/Em 617), which stains the nucleus red.
# (§4) Differentiating cytotoxicity by Live-Dead cell analysis: Further studies were performed to investigate delivery of paclitaxel using nanofibres into various cell lines. To further evaluate the efficiency of nanofibres in enhancing cytotoxicity of paclitaxel, live-dead cell analysis was conducted. Normal cells (CRL 1790), cancer cells (HT-29) and the MDR cells (CRL 2158) were cultured and exposed to paclitaxel alone, and paclitaxel along with nanofibres. The cells were cultured for 24 h at which time point, paclitaxel and the nanofibres were added to the culture. Live dead cell analysis was performed 24 h after exposure to the drug. […] The assay kit (Invitrogen) contains two fluorescent dyes, calcein AM ester (Ex 494 nm, Em 517 nm) which specifically enters live cells, gets de-esterified and stains the live cells green. The dying cells as well as dead cells are membrane compromised (leaky plasma membrane) and allows the entry of ethidium homodimer (Ex 517 nm/Em 617), which stains the nucleus red. […] Panels B, C represent control cells visualized at 617 nm (red, dead cells) and at 517 nm (green, live cells), respectively. Panel A is a composite image of untreated cells. Panels E, F represent the images of cells treated with paclitaxel (32 nM) recorded at the two wavelengths 617 and 517 nm respectively. Panel D is a composite image. Panels H and I show the cells treated with paclitaxel+nanofibres (32 nM+4 μg/ml nanofibers, the fibers and appropriate amount of paclitaxel were mixed in 5% DMSO and added to the culture medium of cells and allowed to incubate for 12 h). Panel G is a composite of the red and green images.
# [5] = tested on: Human colorectal MDR cancer Cells (CRL 2158); details: B-Live/Dead cell analysis, paclitaxel 32 nM, 24 h, without or with nanofibre 4 μg/ml
# Description: as §3, §4
# [6] = tested on: human colorectal cancer cells (HT 29); details: B-Live/Dead cell analysis; paclitaxel 32 nM, 24 h, without or with nanofibre 4 μg/ml
# Description: as §3, §4
# [7] = tested on: normal human intestinal CRL 1790 cells; test: Uptake of calcein and calcein-loaded nanofibres, confocal microscopy; format: cell-based
# Description: (§5) Calcein uptake into HT 29, CRL 1790 cells: Uptake of calcein-loaded nanoparticles into mammalian cells. Calcein by itself is impermeable through membrane, and may be taken up at a low level by endocytosis. Ethanol-bleached cherry was homogenized in water, also containing 1 mg/g fresh weight equivalent of calcein, and the supernatant dialyzed against water. Calcein complexed to nanofilaments is retained within the dialysis bag, and used for uptake measurements by confocal microscopy.
# (§6) Uptake of complexed molecules by nanofibres: Nanofibres are extremely long (micrometers in length, ˜5 nm in diameter; see FIG. 37, for example), and their ability to cross the plasma membrane was investigated. In this experiment, the ability of nanofibres to form natural complexes with a membrane impermeable fluorescent dye, calcein, was investigated. Nanofibres where prepared from ethanol-bleached cherry by procedures described herein above. […] HT-29 and CRL-1790 cells were incubated in the presence of calcein alone, and calcein-complexed nanofibres (of equal fluorescence intensity). Uptake of calcein and calcein complexed with nanofibres were monitored by confocal microscopy. […] Similar experiments were also conducted with nanoparticles, however, because of quenching of fluorescence by polyphenols, successful acquisition of images was not achieved.
# HT 29 cells = test: as above; format: cell-based, human
# Description: as §5, §6
# [8] = DPPH radical scavenging capacity of food powder; format: biochemical; details: positive control at the same concentrations as polyphenols
# Description: The powder was dissolved in water and the antioxidant capacity of the solution was determined by estimating the DPPH Radical scavenging capacity of solution as polyphenol equivalent (estimated by Folin-Ciocalteau reagent) in micrograms. A 0.1 mM Folin-Ciocateau reagent was prepared in methanol, and the food powder solution was added in the specified amounts. The antioxidants were allowed to react with 1 ml of DPPH reagent, and the absorbance (purple, 517 nm absorption) was monitored. The decline in 517 nm absorbance was noted and expressed as % quenching in comparison to a control without polyphenol. […] Each point at a concentration represents an individual sample of food powder prepared;
# The powder was dissolved in water and the antioxidant capacity of the solution was determined by estimating the DPPH Radical scavenging capacity of solution as polyphenol equivalent (estmated by Folin-Ciocalteau reagent) in micrograms. A 0.1 mM Folin-Ciocateau reagent was prepared in methanol, and the food powder solution was added in the specified amounts. The antioxidants were allowed to react with 1 ml of DPPH reagent, and the absorbance (purple, 517 nm absorption) was monitored. The decline in 517 nm absorbance was noted and expressed as % quenching in comparison to a control without polyphenol. […] Each point at a concentration represents an individual sample of food powder prepared.
compound,measurement,setting,value
CC(=O)O[C@H]1C(=O)[C@@]2(C)[C@H]([C@H](OC(=O)c3ccccc3)[C@]3(O)C[C@H](OC(=O)[C@H](O)[C@@H](NC(=O)c4ccccc4)c4ccccc4)C(C)=C1C3(C)C)[C@]1(OC(C)=O)CO[C@@H]1C[C@@H]2O [Paclitaxel],% Living cells Normal Cell Line CRL 1790,[1]; Paclitaxel 2 nM,86.66%
same,% Living cells Normal Cell Line CRL 1790,[1]; Paclitaxel 8 nM,74.28%
same,% Living cells Normal Cell Line CRL 1790,[1]; Paclitaxel 32 nM,66.79%
same,% Living cells Colorectal MDR cell line CRL 2158,[2]; Paclitaxel 2 nM,90.86%
same,% Living cells Colorectal MDR cell line CRL 2158,[2]; Paclitaxel 8 nM,86.17%
same,% Living cells Colorectal MDR cell line CRL 2158,[2]; Paclitaxel 32 nM,83.76%
same,% Living cells Colorectal Cancer Cell Line HT 29,[3]; Paclitaxel 2 nM,70.93%
same,% Living cells Colorectal Cancer Cell Line HT 29,[3]; Paclitaxel 8 nM,59.11%
same,% Living cells Colorectal Cancer Cell Line HT 29,[3]; Paclitaxel 32 nM,50% and 48.27%
same,% Living cells Normal Cell Line CRL 1790,[4],97.6%
same,% Living cells Colorectal MDR cell line CRL 2158,[5],46.00%
same,% Living cells Colorectal MDR cell line CRL 2158,[5]; listed as paclitaxel,~50%
same,% Living cells Colorectal Cancer Cell Line HT 29,[6],10.78%
O=C(O)CN(CC(=O)O)Cc1cc2c(cc1O)Oc1cc(O)c(CN(CC(=O)O)CC(=O)O)cc1C21OC(=O)c2ccccc21 [Calcein],uptake into cells (in words),[7],comparatively very low
same,uptake into cells (in words),HT 29 cells,comparatively very low; also recorded: Far reduced uptake
Cc1c(C)c2c(c(C)c1O)CCC(C)(C(=O)O)O2 (stereo not shown) [Trolox],TEAC value,[8],1
